Measurements from patent US6986993B1, “System for cell-based screening” (Cellomics, Inc., priority 1999, dated 2006).
Where two headings read alike, the source gives them in different places.

Experiments:
[1] = system: PC12 cells; conditions: 3 hours, 8 wells
[2] = system: PC12 cells; assay: cells; conditions: Rattus norvegicus, PC-12, read-out: IC50 (50% inhibitory concentration) for dopamine toxicity to neurites
[3] = system: mouse connective tissue fibroblasts (L-929); assay: High-content screen of drug-induced apoptosis, L-929 cells; assay type: cell-based
Procedure: Cell preparation. The cells chosen for this study were mouse connective tissue fibroblasts (L-929; ATCC CCL-1) and a highly invasive glioblastoma cell line (SNB-19; ATCC CRL-2219) (Welch et al., In Vitro Cell. Dev. Biol. 31:610, 1995). The day before treatment with an apoptosis inducing drug, 3500 cells were placed into each well of a 96-well plate and incubated overnight at 37° C. in a humidified 5% CO2 atmosphere. The following day, the culture medium was removed from each well and replaced with fresh medium containing various concentrations of paclitaxel (0–50 μM) from a 20 mM stock made in DMSO. The maximal concentration of DMSO used in these experiments was 0.25%. The cells were then incubated for 26 h as above. At the end of the paclitaxel treatment period, each well received fresh medium containing 750 nM MITOTRACKER® Red (Molecular Probes; Eugene, Oreg.) and 3 μg/ml Hoechst 33342 DNA-binding dye (Molecular Probes) and was incubated as above for 20 min. Each well on the plate was then washed with HBSS and fixed with 3.7% formaldehyde in HBSS for 15 min at room temperature. The formaldehyde was washed out with HBSS and the cells were permeabilized for 90 s with 0.5% (v/v) Triton X-100, washed with HBSS, incubated with 2 U ml^−1 BODIPY® FL phallacidin (Molecular Probes) for 30 min, and washed with HBSS. The wells on the plate were then filled with 200 μl HBSS, sealed, and the plate stored at 4° C. if Go necessary.
(§1) Image acquisition and analysis on the ArrayScan System. The fluorescence intensity of intracellular MITOTRACKER® Red, Hoechst 33342, and BODIPY® FL phallacidin was measured with the cell screening system as described supra. […]
Calculations and output. A total of 50–250 cells were measured per image field. For each field of cells, the following calculations were performed: (1) The average nuclear area (μm^2) was calculated by dividing the total nuclear area in a field by the number of nuclei detected. (2) The average nuclear perimeter (μm) was calculated by dividing the sum of the perimeters of all nuclei in a field by the number of nuclei detected in that field. […] (3) The average nuclear brightness was calculated by dividing the integrated intensity of the entire field of nuclei by the number of nuclei in that field. […] (4) The average cellular brightness was calculated by dividing the integrated intensity of an entire field of cells stained with MITOTRACKER® dye by the number of nuclei in that field. […] (5) The average cellular brightness was also calculated by dividing the integrated intensity of an entire field of cells stained with BODIPY® FL phallacidin dye by the number of nuclei in that field. […]

[4] = system: glioblastoma cell line (SNB-19); assay: High-content screen of drug-induced apoptosis, SNB-19 cells; assay type: cell-based; conditions: 26 h
Procedure: Cell preparation. The cells chosen for this study were mouse connective tissue fibroblasts (L-929; ATCC CCL-1) and a highly invasive glioblastoma cell line (SNB-19; ATCC CRL-2219) (Welch et al., In Vitro Cell. Dev. Biol. 31:610, 1995). The day before treatment with an apoptosis inducing drug, 3500 cells were placed into each well of a 96-well plate and incubated overnight at 37° C. in a humidified 5% CO2 atmosphere. The following day, the culture medium was removed from each well and replaced with fresh medium containing various concentrations of paclitaxel (0–50 μM) from a 20 mM stock made in DMSO. The maximal concentration of DMSO used in these experiments was 0.25%. The cells were then incubated for 26 h as above. […]
as §1
Calculations and output. A total of 50–250 cells were measured per image field. For each field of cells, the following calculations were performed: (1) The average nuclear area (μm^2) was calculated by dividing the total nuclear area in a field by the number of nuclei detected. (2) The average nuclear perimeter (μm) was calculated by dividing the sum of the perimeters of all nuclei in a field by the number of nuclei detected in that field. […]

[5] = system: NF-KB transcription factor; assay: NF-KB cytoplasm to nucleus translocation screen (NucCyt Difference); assay type: cell-based; conditions: human cell line, wells titrated with IL-1; FIG. 16
Procedure: The distribution of the transcription factor is determined by labeling the nuclei with a DNA specific fluorophore like […] and the transcription factor with a specific fluorescent antibody. After autofocusing on the Hoechst labeled nuclei, an image of the nuclei is acquired in the cell-based screening system and used to create a mask by one of several optional thresholding methods, as described supra. The morphological descriptors of the regions defined by the mask are compared with the user defined parameters and valid nuclear masks are identified and used with the following method to extract transcription factor distributions. Each valid nuclear mask is eroded to define a slightly smaller nuclear region. The original nuclear mask is then dilated in two steps to define a ring shaped region around the nucleus, which represents a cytoplasmic region. The average antibody fluorescence in each of these two regions is determined, and the difference between these averages is defined as the NucCyt Difference. […] Using these two sampling regions, data on nuclear translocation can be automatically analyzed by the cell-based screening system on a cell by cell basis. […]

## NCCc1ccc(O)c(O)c1 [dopamine]
[1]; dopamine 0.05 mM
  Neurite Outgrowth Index (mean +/− standard deviation): 43 +/− 4%
[1]; dopamine 0.1 mM
  Neurite Outgrowth Index (mean +/− standard deviation): 37 +/− 3%
[1]; dopamine 0.2 mM
  Neurite Outgrowth Index (mean +/− standard deviation): 37 +/− 3%
[1]; dopamine 0.4 mM
  Neurite Outgrowth Index (mean +/− standard deviation): 25 +/− 3%
[1]; dopamine 0.8 mM
  Neurite Outgrowth Index (mean +/− standard deviation): 17 +/− 2%
[1]; dopamine 1.6 mM
  Neurite Outgrowth Index (mean +/− standard deviation): 11 +/− 2%
[2]
  IC50: 460 µM

## CC(=O)O[C@H]1C(=O)[C@@]2(C)[C@H]([C@H](OC(=O)c3ccccc3)[C@]3(O)C[C@H](OC(=O)[C@H](O)[C@@H](NC(=O)c4ccccc4)c4ccccc4)C(C)=C1C3(C)C)[C@]1(OC(C)=O)CO[C@@H]1C[C@@H]2O [paclitaxel]
[3]; L-929 cells, 26 h
  Concentration giving maximal response in many parameters: 5 µM
[3]; L-929 cells, all concentrations tested (0–50 μM)
  Mitochondrial potential: did not show a sharp decrease in mitochondrial potential
[3]; L-929 cells, increasing amounts, 26 h, FIG. 24
  Nuclear morphology: caused nuclei to enlarge and fragment
[3]; L-929 versus SNB-19
  Dose for maximal response in L-929 relative to SNB-19 cells: 500 fold
[4]
  Concentration at which area, brightness and fragmentation of the nucleus and actin polymerization reached a maximum value: 10 nM
  Concentration at which mitochondrial potential was minimal: 10 nM

B1: IL-1: a known inducer of the NF-KB transcription factor (protein, UniProt P01583 113-271, looked up)
Interleukin-1 alpha: SAPFSFLSNVKYNFMRIIKYEFILNDALNQSIIRANDQYLTAAALHNLDEAVKFDMGAYKSSKDDAKITVILRISKTQLYVTAQDEDQPVLLKEMPEIPKTITGSETNLLFFWETHGTKNYFTSVAHPNLFIATKQDYWVCLAGGPPSITDFQILENQA
[5]
  NucCyt Difference (NF-KB nuclear translocation) versus amount of agonist: strongly correlated with the amount of agonist added to the wells
